From patent US20230026360A1, “DETECTION OF MOLECULAR INTERACTIONS” (Orionis Biosciences, Inc., priority 2019, published 2023)
“Also recorded” adds a separate entry of the source.

Legend:
Format in all cases: cell-based
[1] = biological target: T1, CRBN (Homo sapiens, UniProt Q96SW2); test: CRBN inverse MAPPIT competition assay against TMP-lenalidomide hybrid ligand; settings: 300 nM TMP-lenalidomide; leptin; HEK293T; specificity versus gp130-REM2 control (CTRL)
T1 construct: expressed in transfected cells; host or cells: HEK293T
Source text: As in Example 6, HEK293T cells were transfected with a plasmid encoding E. coli Dihydrofolate Reductase (DHFR) fused to the tails of the cytoplasmic domain of a mutated leptin receptor (pCLG-DHFR), a plasmid encoding a CRBN prey fused to the gp130 cytoplasmic domain or a plasmid encoding a gp130-REM2 control fusion that can directly interact with the leptin receptor of the DHFR fusion protein, and the STAT3 responsive pXP2d2-rPAPI-luciferase reporter plasmid—using a standard transfection method, as described (Lievens, et al. “Array MAPPIT: high-throughput interactome analysis in mammalian cells.” Journal of Proteome Research 8.2 (2009): 877-886). […] Data points in FIGS. 10A-B represent the average luciferase activity of triplicate samples derived from cells treated with leptin+test compound for the REM2 control (CTRL) or cells treated with leptin+hybrid ligand+test compound (CRBN) relative to leptin (CTRL) or leptin+hybrid ligand (CRBN) only treated samples (the signals obtained in absence of added test compound for both cases is set at 100% of luciferase activity on y-axis). Error bars represent standard deviations. Curves were fit using 4-parameter nonlinear regression in […] PRISM software.

[2] = biological target: T2, DCAF15-RBM39 binding (Homo sapiens, UniProt Q66K64); test: MAPPIT inverse assay, RBM39 receptor fusion + DCAF15 gp130 fusion; settings: inverse configuration; leptin; HEK293T
T2 construct: expressed in transfected cells; host or cells: HEK293T
Source text: (§1) In this example, MAPPIT forward and inverse assays were developed that enable the assessment of sulfonamides to induce binding between DCAF15 and RBM39. […] The experimental setup was according to the procedure described before, using the following plasmid constructs encoding the MAPPIT receptor and gp130 fusions: in forward mode the DCAF15 bait was fused to a MAPPIT chimeric receptor construct containing the extracellular leptin receptor domain (pCLL-DCAF15) and RBM39 proteins was fused to the partial gp130 domain; in inverse mode, the DCAF15 bait was fused to the partial gp130 domain and RBM39 was fused to a MAPPIT transmembrane receptor (pCLG-RBM39). […] Cells were treated with leptin without or with the indicated dose of test compound (indisulam, tasisulam, CQS or E7820) at 24 hours after transfection. Luciferase activity was measured 24 hours after test compound treatment using the Luciferase Assay System kit (PROMEGA, Madison, Wis.) with an Ensight plate reader (PERKIN ELMER LIFE SCIENCES, Waltham, Mass.). […] Error bars represent standard deviations. […] The results shown in FIG. 12 indicate that only in the inverse assay mode sulfonamide-induced DCAF15-RBM39 binding can be observed.

[3] = biological target: T2, DCAF15-RBM39 binding; test: MAPPIT forward assay, DCAF15 receptor fusion + RBM39 gp130 fusion; settings: forward configuration; leptin; HEK293T
Source text: as §1

`Cc1nc2cccc(N)c2c(=O)n1C1CCC(=O)NC1=O` (stereo not drawn) [CC-122] was tested, and the “competition with TMP-lenalidomide hybrid ligand for binding to CRBN (inhibition of luciferase signal)” value [1] was “specifically inhibit hybrid-ligand induced luciferase reporter activation in a dose-dependent manner; also recorded: competed efficiently”.

With `Cc1ccc(NS(=O)(=O)c2cccc(C#N)c2)c2[nH]cc(C#N)c12` [E7820] the “sulfonamide-induced recruitment of RBM39 to DCAF15 (luciferase signal)” value (shortened to “sulfonamide-induced recruitment of RBM39”) [2] was “dose-dependent luciferase signal increase”.

For `NS(=O)(=O)c1ccc(S(=O)(=O)Nc2cccc3c(Cl)c[nH]c23)cc1` [indisulam], the “sulfonamide-induced recruitment of RBM39” value [3] was “only in inverse mode could a dose-dependent luciferase signal increase be observed” and the “sulfonamide-induced recruitment of RBM39” value [2] was “dose-dependent luciferase signal increase”.

For `Nc1cccc2c1C(=O)N(C1CCC(=O)NC1=O)C2=O` (stereo not drawn) [pomalidomide], the “competition with TMP-lenalidomide hybrid ligand for binding to CRBN (inhibition of luciferase signal)” value [1] was “specifically inhibit hybrid-ligand induced luciferase reporter activation in a dose-dependent manner; also recorded: competed efficiently”.

For `O=C(NS(=O)(=O)c1ccc(Br)s1)c1ccc(Cl)cc1Cl` [tasisulam], the “sulfonamide-induced recruitment of RBM39” value [2] was “dose-dependent luciferase signal increase”.
